Reference: patent US5840697A, “Peptide inhibitors of calmodulin” (Torrey Pines Institute for Molecular Studies, priority 1996, dated 1998)
Like-named read-outs stand apart in the source and are kept apart here. Square brackets hold non-standard residues; d marks the D form. Peptide text beside a SMILES is read from it.

Columns and labels:
calmodulin = calmodulin (Homo sapiens, UniProt P0DP23); experiment: calcium-dependent phosphodiesterase assay (calmodulin activity); assay type: biochemical; details: for SPECIFICITY: comparison of IC50 for phosphodiesterase with IC50 for calmodulin; for calmodulin inhibitory activity, in words: (L)-amino acid peptides of Table II
Experimental: In the calcium dependent phosphodiesterase assay, calmodulin can be assayed by its ability to stimulate phosphodiesterase activity as determined by a two-step assay procedure illustrated by reactions (1) and (2) below. [drawing 1]
During the first step of the assay cyclic adenosine 3'5'-monophosphate (cAMP) is incubated with calcium-activated phosphodiesterase (Cal-PDE), which hydrolyses the 3'bond producing adenosine 5'-monophosphate (5'-AMP). During the second step, 5'-AMP is quantitatively converted into adenosine and inorganic phosphate (Pi) through the action of a 5-nucleotidase. The reaction is followed by the measurement of the Pi formed by reading the absorbance at 660 nm after reacting with ammonium molybdate. The amount of Pi formed is directly related to the phosphodiesterase activity which depends on the level of activation by calmodulin.
To sample assay tubes were added the following components: assay buffer, 25 ul; CaCl2, 5 ul; 5'-nucleotidase, 7.5 ul (stock solution is 10 units/ml); calmodulin 5 units; calmodulin inhibitor peptides to obtain the desired final concentration of 50 μM. The volume was then made up to 200 ul with water. Control blanks were prepared replacing the peptides with water. The added components were thoroughly mixed and the tubes incubated at 30° C. for 10 min. […] The samples were centrifuged to remove the protein precipitate and the 50 ul of the supernatant was withdrawn for phosphate measurement. […] The absorbance of the solution were read at 660 nm using water as a blank, identified as control "Calmo."
The two controls used in the assay, one without and one with calmodulin, as indicated in FIG. 1 and Table I were as follows,: (1) PDE:
These three controls were used in the calcium-dependent phosphodiesterase assay for reproducibility of the assay.
In addition to the calcium-dependent phosphodiesterase assay data, IC50 values were determined for many of the peptides. The assay carried out for the determination in the IC50 values differed from the above screening assay by the concentration of the peptides being tested.
(3) TFP: trifluoperazine; and (4) Calmidasolium: (1-[bis-(4-chlorophenyl)methyl]-3[-2-(2,4-dichlorophenyl)-2[(2,4-dichlorophenyl)methoxy]-ethyl]-1H-imidazolium chloride. The IC50 values were calculated using sigmoidal curve software (Graphpad, ISI; San Diego, Calif.) using the % inhibition at different mixture concentrations (see protocol for determination of % inhibition).
The (L)-amino acid counterpart for five (5) of the all (D)-amino acid peptides identified from the PS-SCL were synthesized in order to study the stereoselectivity of the inhibition.

phosphodiesterase = experiment: calcium-dependent phosphodiesterase assay in the absence of calmodulin; assay type: biochemical; details: Table III
Experimental: To sample assay tubes were added the following components: assay buffer, 25 ul; CaCl2, 5 ul; 5'-nucleotidase, 7.5 ul (stock solution is 10 units/ml); calmodulin 5 units; calmodulin inhibitor peptides to obtain the desired final concentration of 50 μM. The volume was then made up to 200 ul with water. Control blanks were prepared replacing the peptides with water. The added components were thoroughly mixed and the tubes incubated at 30° C. for 10 min. Then, 25 ul of cAMP at 10.8 mM was added and incubated for 90 min at 30° C. The reaction was stopped by the addition of 50 ul of 55% trichloroacetic acid (TCA). The samples were centrifuged to remove the protein precipitate and the 50 ul of the supernatant was withdrawn for phosphate measurement. To the supernatant aliquot, 50 ul ammonium molybdate (0.55% in 1.1 N sulfuric acid) was added, followed by the addition of 5 ul of reducing agent (24 g sodium bisulfite, 2.4 g sodium sulfite, 0.5 g of 1-amino-2-naphthol-4-sulfonic acid in 200 ml of water), and the contents were mixed by vortexing. The absorbance of the solution were read at 660 nm using water as a blank, identified as control "Calmo."
As described above, one of the undesirable biological effects of existing calmodulin inhibitors is their non-specific binding to other proteins and the like. Therefore, the specificity of the instant inhibitory peptides for calmodulin was examined. The specificity was determined using the calcium-dependent phosphodiesterase assay described in Example I. The assay was carried out for the determination of IC50 values in the presence of calmodulin (IC50 value for calmodulin) and in the absence of calmodulin (IC50 for phosphodiesterase), the latter of which provides the effect of the inhibitory peptides on the phosphodiesterase.

NRK cells = experiment: long term stability: number of NRK cells at 48 hr after activation; assay type: cell-based, rat; details: added at 5 hr, counted 48 hr after activation
Text: The similar activity found for the (L)-amino acid peptides and (D)-amino acid peptides indicate that the inhibition of calmodulin occurs rapidly following the addition of the inhibitory peptides. The peptides' long term stability was then studied by adding Ac-(D)Leu-(D)Trp-(D)Arg-(D)Ile-(D)Leu-(D)Trp-NH2, Ac-Leu-Trp-Arg-Ile-Leu-Trp-NH2 (SEQ ID No. 48), W13 and W12 at 5 hr following the reentry of the NRK cells into the cell cycle and measuring the number of cells at 48 hr after activation.

[1] = Table I, assayed at 75, 50 and 12.5 μM, average of repeated assays, read-out: Average IC50
[2] = Table III, in the presence of calmodulin, read-out: IC50 (μM) for calmodulin
[3] = Table II, (L)-amino acid peptides, concentrations 0.2 to 50.0 μM, read-out: IC50

Row | IC50 (calmodulin; [1]) | IC50 (calmodulin; [2]) | SPECIFICITY (calmodulin) | IC50 (phosphodiesterase) | calmodulin inhibitory activity, in words (calmodulin) | IC50 (calmodulin; [3]) | IC50 (μM) for phosphodiesterase (phosphodiesterase) | Compound | number of cells relative to control cells (NRK cells)
1 | 3.9 µM | 4.8 µM | > 42 | > 200 µM |  |  |  | CC[C@@H](C)[C@@H](NC(=O)[C@@H](CCCNC(=N)N)NC(=O)[C@@H](Cc1c[nH]c2ccccc12)NC(=O)[C@@H](CC(C)C)NC(C)=O)C(=O)N[C@H](CC(C)C)C(=O)N[C@H](CCCNC(=N)N)C(N)=O [Ac-(D)Leu-(D)Trp-(D)Arg-(D)Ile-(D)Leu-(D)Arg-NH2] (Ac-[dL][dW][dR][dI][dL][dR]-NH2) | 
2 | 27 µM | 25 µM | 4.8 | 119 µM |  |  |  | CC[C@@H](C)[C@@H](NC(=O)[C@@H](CCC(N)=O)NC(=O)[C@@H](CC(C)C)NC(C)=O)C(=O)N[C@@H](C(=O)N[C@H](CC(C)C)C(=O)N[C@H](Cc1c[nH]c2ccccc12)C(N)=O)[C@H](C)CC [Ac-(D)Leu-(D)Gln-(D)Ile-(D)Ile-(D)Leu-(D)Trp-NH2] (Ac-[dL][dQ][dI][dI][dL][dW]-NH2) | 
3 |  | 1.1 µM | > 182 | > 200 µM | especially high activity | 1.15 µM |  | CC(=O)N[C@@H](CC(C)C)C(=O)N[C@@H](Cc1c[nH]c2ccccc12)C(=O)N[C@@H](CCCNC(=N)N)C(=O)N[C@@H](Cc1c[nH]cn1)C(=O)N[C@@H](CC(C)C)C(=O)N[C@@H](Cc1c[nH]c2ccccc12)C(N)=O [Ac-Leu-Trp-Arg-His-Leu-Trp-NH2] (Ac-LWRHLW-NH2) | 
4 | 3.6 µM |  | 12 | 42 µM |  |  |  | CC[C@@H](C)[C@@H](NC(=O)[C@@H](Cc1c[nH]c2ccccc12)NC(=O)[C@@H](CC(C)C)NC(C)=O)C(=O)N[C@H](Cc1c[nH]cn1)C(=O)N[C@H](CC(C)C)C(=O)N[C@H](Cc1c[nH]c2ccccc12)C(N)=O [Ac-(D)Leu-(D)Trp-(D)Ile-(D)His-(D)Leu-(D)Trp-NH2] (Ac-[dL][dW][dI][dH][dL][dW]-NH2) | 
5 | 5.9 µM | 6.7 µM | 10 | 68 µM |  |  |  | CC(=O)N[C@H](CC(C)C)C(=O)N[C@H](Cc1c[nH]c2ccccc12)C(=O)N[C@H](CCCNC(=N)N)C(=O)N[C@H](Cc1c[nH]cn1)C(=O)N[C@H](CC(C)C)C(=O)N[C@H](Cc1c[nH]c2ccccc12)C(N)=O [Ac-(D)Leu-(D)Trp-(D)Arg-(D)His-(D)Leu-(D)Trp-NH2] (Ac-[dL][dW][dR][dH][dL][dW]-NH2) | 
6 | 1.1 µM |  | 100 | 112 µM |  |  |  | CC(=O)N[C@H](CC(C)C)C(=O)N[C@H](Cc1c[nH]c2ccccc12)C(=O)N[C@H](CCCNC(=N)N)C(=O)N[C@H](Cc1c[nH]cn1)C(=O)N[C@H](Cc1c[nH]cn1)C(=O)N[C@H](Cc1c[nH]c2ccccc12)C(N)=O [Ac-(D)Leu-(D)Trp-(D)Arg-(D)His-(D)His-(D)Trp-NH2] (Ac-[dL][dW][dR][dH][dH][dW]-NH2) | 
7 |  |  | > 69 | > 200 µM | especially high activity | 2.89 µM |  | CC[C@H](C)[C@H](NC(=O)[C@H](CCCNC(=N)N)NC(=O)[C@H](Cc1c[nH]c2ccccc12)NC(=O)[C@H](CC(C)C)NC(C)=O)C(=O)N[C@@H](CC(C)C)C(=O)N[C@@H](CCCNC(=N)N)C(N)=O [Ac-Leu-Trp-Arg-Ile-Leu-Arg-NH2] (Ac-LWRILR-NH2) | 
8 | 8.5 µM | 12 µM | 2.4 | 30 µM |  |  |  | CC[C@@H](C)[C@@H](NC(=O)[C@@H](Cc1c[nH]c2ccccc12)NC(=O)[C@@H](CC(C)C)NC(C)=O)C(=O)N[C@H](Cc1c[nH]cn1)C(=O)N[C@H](Cc1c[nH]cn1)C(=O)N[C@H](Cc1c[nH]c2ccccc12)C(N)=O [Ac-(D)Leu-(D)Trp-(D)Ile-(D)His-(D)His-(D)Trp-NH2] (Ac-[dL][dW][dI][dH][dH][dW]-NH2) | 
9 | 36 µM | 29 µM |  |  |  |  | activation | CC[C@@H](C)[C@@H](NC(=O)[C@@H](Cc1c[nH]c2ccccc12)NC(=O)[C@@H](CC(C)C)NC(C)=O)C(=O)N[C@@H](C(=O)N[C@H](CC(C)C)C(=O)N[C@H](Cc1c[nH]c2ccccc12)C(N)=O)[C@H](C)CC [Ac-(D)Leu-(D)Trp-(D)Ile-(D)Ile-(D)Leu-(D)Trp-NH2] (Ac-[dL][dW][dI][dI][dL][dW]-NH2) | 
10 |  |  | > 227 | > 200 µM | especially high activity | 0.88 µM |  | CC[C@H](C)[C@H](NC(=O)[C@H](CCCNC(=N)N)NC(=O)[C@H](Cc1c[nH]c2ccccc12)NC(=O)[C@H](CC(C)C)NC(C)=O)C(=O)N[C@@H](CC(C)C)C(=O)N[C@@H](Cc1c[nH]c2ccccc12)C(N)=O [Ac-Leu-Trp-Arg-Ile-Leu-Trp-NH2] (Ac-LWRILW-NH2) | the same number of cells
11 | 20 µM |  |  |  |  |  |  | CC[C@@H](C)[C@@H](NC(=O)[C@@H](CCC(N)=O)NC(=O)[C@@H](CC(C)C)NC(C)=O)C(=O)N[C@H](Cc1c[nH]cn1)C(=O)N[C@H](Cc1c[nH]cn1)C(=O)N[C@H](CCCNC(=N)N)C(N)=O [Ac-(D)Leu-(D)Gln-(D)Ile-(D)His-(D)His-(D)Arg-NH2] (Ac-[dL][dQ][dI][dH][dH][dR]-NH2) | 
12 | 20 µM |  |  |  |  |  |  | CC(=O)N[C@H](CC(C)C)C(=O)N[C@H](CCC(N)=O)C(=O)N[C@H](CCCNC(=N)N)C(=O)N[C@H](Cc1c[nH]cn1)C(=O)N[C@H](CC(C)C)C(=O)N[C@H](Cc1c[nH]c2ccccc12)C(N)=O [Ac-(D)Leu-(D)Gln-(D)Arg-(D)His-(D)Leu-(D)Trp-NH2] (Ac-[dL][dQ][dR][dH][dL][dW]-NH2) | 
13 | 0.96 µM | 1.2 µM | 69 | 84 µM |  |  |  | CC[C@@H](C)[C@@H](NC(=O)[C@@H](CCCNC(=N)N)NC(=O)[C@@H](Cc1c[nH]c2ccccc12)NC(=O)[C@@H](CC(C)C)NC(C)=O)C(=O)N[C@H](Cc1c[nH]cn1)C(=O)N[C@H](Cc1c[nH]c2ccccc12)C(N)=O [Ac-(D)Leu-(D)Trp-(D)Arg-(D)Ile-(D)His-(D)Trp-NH2] (Ac-[dL][dW][dR][dI][dH][dW]-NH2) | 
14 | 20 µM |  |  |  |  |  |  | CC(=O)N[C@H](CC(C)C)C(=O)N[C@H](CCC(N)=O)C(=O)N[C@H](CCCNC(=N)N)C(=O)N[C@H](Cc1c[nH]cn1)C(=O)N[C@H](Cc1c[nH]cn1)C(=O)N[C@H](CCCNC(=N)N)C(N)=O [Ac-(D)Leu-(D)Gln-(D)Arg-(D)His-(D)His-(D)Arg-NH2] (Ac-[dL][dQ][dR][dH][dH][dR]-NH2) | 
